Structures are written as SMILES.

SIK2, sequence (Q9H0K1 whole entry, species assumed): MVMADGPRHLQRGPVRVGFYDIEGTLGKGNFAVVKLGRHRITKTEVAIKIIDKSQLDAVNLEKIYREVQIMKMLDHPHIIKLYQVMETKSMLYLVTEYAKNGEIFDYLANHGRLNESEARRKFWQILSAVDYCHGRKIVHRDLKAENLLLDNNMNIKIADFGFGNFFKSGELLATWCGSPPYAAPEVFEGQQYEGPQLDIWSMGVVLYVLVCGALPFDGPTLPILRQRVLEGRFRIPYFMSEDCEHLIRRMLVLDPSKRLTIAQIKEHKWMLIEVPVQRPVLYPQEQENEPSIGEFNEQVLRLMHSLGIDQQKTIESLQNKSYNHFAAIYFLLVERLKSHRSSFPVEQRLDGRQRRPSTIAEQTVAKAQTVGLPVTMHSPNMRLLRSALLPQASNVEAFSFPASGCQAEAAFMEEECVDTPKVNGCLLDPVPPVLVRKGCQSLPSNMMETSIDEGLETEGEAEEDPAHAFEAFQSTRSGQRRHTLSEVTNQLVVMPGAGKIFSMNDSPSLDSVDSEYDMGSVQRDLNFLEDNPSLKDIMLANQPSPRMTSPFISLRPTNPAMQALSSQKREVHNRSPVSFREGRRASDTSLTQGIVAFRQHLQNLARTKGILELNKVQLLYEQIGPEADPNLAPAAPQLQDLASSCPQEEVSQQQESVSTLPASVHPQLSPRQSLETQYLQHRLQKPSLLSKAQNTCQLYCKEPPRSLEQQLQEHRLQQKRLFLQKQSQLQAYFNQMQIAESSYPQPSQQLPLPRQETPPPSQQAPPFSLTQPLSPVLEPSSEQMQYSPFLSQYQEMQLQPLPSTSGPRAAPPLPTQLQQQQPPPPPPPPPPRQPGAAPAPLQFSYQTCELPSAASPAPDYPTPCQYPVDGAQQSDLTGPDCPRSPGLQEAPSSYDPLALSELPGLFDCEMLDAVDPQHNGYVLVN

The assay addresses SIK2 (Homo sapiens (Human), UniProt Q9H0K1). As to the kind of experiment: SIK2 Enzymatic Assay Version 2 (High ATP). Format: biochemical. Conditions: 3 mM ATP and 200 μM HDAC5tide final, ADP-Glo Max luminescence. The gist of the method:
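Luminescent ADP-Glo Max read-out: depletion reagent 2 h, then detection reagent 1 h. Before the reaction, compounds were incubated 30 min with enzyme added at 6 nM (twice final concentration), with all steps at room temperature.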
Background: ADP-Glo first removes unused ATP, then detects ADP through luciferase.
In turn, `Cc1cc(Nc2cc3cc(-c4c(O[C@@H]5CNC[C@@H]5F)noc4C)ccn3n2)nnc1C` [Example 93, N-(5,6-dimethylpyridazin-3-yl)-5-[3-[(3R,4S)-4-fluoropyrrolidin-3-yl]oxy-5-methyl-isoxazol-4-yl]pyrazolo[1,5-a]pyridin-2-amine] gave an IC50 of 4.7 nM. In other words, the single-digit nanomolar range. In the case of `Cc1ccc(Nc2cc3cc(-c4c(OC[C@H]5CCN5)cnn4C)ccn3n2)nn1` [Example 392, 5-[4-[[(2R)-azetidin-2-yl]methoxy]-2-methyl-pyrazol-3-yl]-N-(6-methylpyridazin-3-yl)pyrazolo[1,5-a]pyridin-2-amine] it was 73 nM; in that of `Cc1onc(O[C@@H]2CCNC[C@@H]2F)c1-c1ccn2nc(NC(=O)C3CC3)cc2c1` (racemic) [Example 211, (rac-cis)-N-[5-[3-[(3-fluoro-4-piperidyl)oxy]-5-methyl-isoxazol-4-yl]pyrazolo[1,5-a]pyridin-2-yl]cyclopropanecarboxamide], 32.5 nM. In the case of `Cc1cnc(Nc2cc3cc(-c4c(OC[C@H]5CCN5)cnn4C)ccn3n2)cn1` [Example 393, 5-[4-[[(2R)-azetidin-2-yl]methoxy]-2-methyl-pyrazol-3-yl]-N-(5-methylpyrazin-2-yl)pyrazolo[1,5-a]pyridin-2-amine] it was 98.4 nM; in that of `Cc1nc(Nc2cc3cc(-c4c(OC[C@H]5CCN5C)cnn4C)ccn3n2)cc(C(=O)N(C)C)n1` [Example 108, N,N,2-trimethyl-6-[[5-[2-methyl-4-[[(2R)-1-methylazetidin-2-yl]methoxy]pyrazol-3-yl]pyrazolo[1,5-a]pyridin-2-yl]amino]pyrimidine-4-carboxamide], 3.3 nM. As for `Cc1onc(OC[C@@H](N)c2ccccn2)c1-c1ccn2nc(NC(=O)C3CC3)cc2c1` [Example 223, N-[5-[3-[(2S)-2-amino-2-(2-pyridyl)ethoxy]-5-methyl-isoxazol-4-yl]pyrazolo[1,5-a]pyridin-2-yl]cyclopropanecarboxamide], the concentration for half-maximal inhibition (IC50) was found to be 30.7 nM. For `Cn1ncc(OC[C@H]2NCC2(C)C)c1-c1ccn2nc(NC(=O)C3CC3)cc2c1` [Example 4, N-[5-[4-[[(2S)-3,3-dimethylazetidin-2-yl]methoxy]-2-methyl-pyrazol-3-yl]pyrazolo[1,5-a]pyridin-2-yl]cyclopropanecarboxamide], half-maximal inhibition (IC50) required 7.6 nM. For `Cc1cc(Nc2cc3cc(-c4c(OC[C@H]5CCN5C[C@H](C)O)cnn4C)ccn3n2)nc(C)n1` [Example 292, (2S)-1-[(2R)-2-[[5-[2-[(2,6-dimethylpyrimidin-4-yl)amino]pyrazolo[1,5-a]pyridin-5-yl]-1-methyl-pyrazol-4-yl]oxymethyl]azetidin-1-yl]propan-2-ol] the value was less than 0.847 nM; for `Cc1cncc(Nc2cc3cc(-c4c(CO[C@@H]5CN(C)C[C@@H]5C)cnn4C)ccn3n2)n1` (stereo in doubt) [Example 379, CIS—*S, *S-5-[4-[(1,4-dimethylpyrrolidin-3-yl)oxymethyl]-2-methyl-pyrazol-3-yl]-N-(6-methylpyrazin-2-yl)pyrazolo[1,5-a]pyridin-2-amine], 2.2 nM. On to `[2H]C([2H])([2H])n1ncc(OC[C@H]2CCN2C)c1-c1ccn2nc(Nc3cc(C)nc(C)n3)cc2c1` [Example 131, N-(2,6-dimethylpyrimidin-4-yl)-5-[4-[[(2R)-1-methylazetidin-2-yl]methoxy]-2-(trideuteriomethyl)pyrazol-3-yl]pyrazolo[1,5-a]pyridin-2-amine], for which the IC50 was less than 0.847 nM.

Turning to `CCN1CC[C@@H]1COc1cnn(C)c1-c1ccn2nc(Nc3cncc(C)n3)cc2c1` [Example 20, (R)-5-(4-((1-Ethylazetidin-2-yl)methoxy)-1-methyl-1H-pyrazol-5-yl)-N-(6-methylpyrazin-2-yl)pyrazolo[1,5-a]pyridin-2-amine], the half-maximal inhibitory concentration (IC50) was less than 0.847 nM. In the case of `Cn1ncc(OC2CCNCC2)c1-c1ccn2nc(NC(=O)C3CC3)cc2c1` [Example 407, N-[5-[2-methyl-4-(4-piperidyloxy)pyrazol-3-yl]pyrazolo[1,5-a]pyridin-2-yl]cyclopropanecarboxamide] it was 86 nM. For `Cc1cc(Nc2cc3cc(-c4c(OC[C@@H]5CCO[C@@H]5C)cnn4C)ccn3n2)nc(C)n1` (relative stereo) [Example 295, (2*R, 3*S)—N-(2,6-dimethylpyrimidin-4-yl)-5-[2-methyl-4-[(2-methyltetrahydrofuran-3-yl)methoxy]pyrazol-3-yl]pyrazolo[1,5-a]pyridin-2-amine] the value was 24.5 nM; for `Cc1cc(Nc2cc3cc(-c4c(OC[C@@H]5CCN5C)cnn4C)ccn3n2)nc(C(F)(F)F)n1` [Example 308, 5-[2-methyl-4-[[(2S)-1-methylazetidin-2-yl]methoxy]pyrazol-3-yl]-N-[6-methyl-2-(trifluoromethyl)pyrimidin-4-yl]pyrazolo[1,5-a]pyridin-2-amine], 15.3 nM; for `Cc1cncc(Nc2cc3cc(-c4c(OC[C@H]5CCN5CCF)cnn4C)ccn3n2)n1` [Example 278, 5-[4-[[(2R)-1-(2-fluoroethyl)azetidin-2-yl]methoxy]-2-methyl-pyrazol-3-yl]-N-(6-methylpyrazin-2-yl)pyrazolo[1,5-a]pyridin-2-amine], 1 nM. For `Cc1onc(OC[C@H]2N(C)CC2(C)C)c1-c1ccn2nc(NC(=O)C3CC3)cc2c1` [Example 321, N-[5-[5-methyl-3-[[(2S)-1,3,3-trimethylazetidin-2-yl]methoxy]isoxazol-4-yl]pyrazolo[1,5-a]pyridin-2-yl]cyclopropanecarboxamide] the value was 52.6 nM; for `Cc1onc(OC[C@H]2CCN2C)c1-c1ccc2nc(NC(=O)C3CC3)cn2c1` [Example 329, N-[6-[5-methyl-3-[[(2R)-1-methylazetidin-2-yl]methoxy]isoxazol-4-yl]imidazo[1,2-a]pyridin-2-yl]cyclopropanecarboxamide], 35 nM. Turning to `CO[C@@H]1CN(C)C[C@H]1COc1cnn(C)c1-c1ccn2nc(NC(=O)C3CC3)cc2c1` [Example 423, N-[5-[4-[[(3S,4S)-4-methoxy-1-methyl-pyrrolidin-3-yl]methoxy]-2-methyl-pyrazol-3-yl]pyrazolo[1,5-a]pyridin-2-yl]cyclopropanecarboxamide], the IC50 turned out to be 151 nM. In the case of `Cc1cc(Nc2cc3cc(-c4c(OC[C@@H]5COC(C)(C)C5)cnn4C)ccn3n2)nc(C)n1` (single isomer, unassigned) [Example 307, (*R)—N-(2,6-dimethylpyrimidin-4-yl)-5-[4-[(5,5-dimethyltetrahydrofuran-3-yl)methoxy]-2-methyl-pyrazol-3-yl]pyrazolo[1,5-a]pyridin-2-amine] it was 30.9 nM; in that of `CN1C[C@H]2C[C@H]2[C@@H]1COc1cnn(C)c1-c1ccn2nc(NC(=O)C3CC3)cc2c1` [Example 432, N-[5-[2-methyl-4-[[(1S,4R,5R)-3-methyl-3-azabicyclo[3.1.0]hexan-4-yl]methoxy]pyrazol-3-yl]pyrazolo[1,5-a]pyridin-2-yl]cyclopropanecarboxamide], 76.8 nM. For `CN[C@H](COc1noc(C)c1-c1ccn2nc(NC(=O)C3CC3)cc2c1)c1ccccn1` [Example 224, N-[5-[5-methyl-3-[(2S)-2-(methylamino)-2-(2-pyridyl)ethoxy]isoxazol-4-yl]pyrazolo[1,5-a]pyridin-2-yl]cyclopropanecarboxamide] the value was 21.4 nM.

A word on the IC50: it is the concentration that gives 50% inhibition. Read a low IC50 as inhibition by little substance.

Source of the values: US20240174662A1, “SMALL MOLECULE INHIBITORS OF SALT INDUCIBLE KINASES” (Janssen Biotech, Inc., priority 2021, published 2024).
